Where two headings read alike, the source gives them in different places.
What was measured:
PAD4 [1] = biological target: T1, PAD4 (Homo sapiens, UniProt Q9UM07); assay: IC50 assays (Example 2); format: biochemical; settings: for IC50: 10 mM BAEE; for inhibition at the highest concentration tested: 500 μM
PAD4 [2] = biological target: T1, PAD4; assay: Time course inhibition assays (Example 1); settings: 10 mM BAEE, 10 mM CaCl2
PAD4 [3] = settings: known PAD inhibitor; cited from earlier work
PAD4 [4] = biological target: T1, PAD4; assay: IC50 assays of compounds 1, 2 and 3 (Example 1); settings: pre-incubation with PAD4 and Ca2+ (10 mM) for 10 min; BAEE 1 mM final; 20 min
PAD4 [5] = biological target: T1, PAD4; assay: Inhibition assays with compound 1 (mode of inhibition, BAEE substrate); format: biochemical; settings: 0, 5, 10 mM compound 1, read-out: Kis (linear competitive inhibition)
PAD4 [6] = biological target: T1, PAD4; assay: Time course assays / inactivation kinetics (Example 2); format: biochemical; settings: 2 mM BAEE
PAD4 [7] = biological target: T1, PAD4; assay: H3-amidine inhibition assays; format: biochemical; settings: BAEE substrate; 0, 5, 10 mM H3-amidine; read-out: Kis (linear competitive inhibition)
Method: Initial rates were determined in the absence and presence of various amounts of H3-amidine (0, 5, 10 mM), using BAEE as the substrate. […] After incubation at 37° C. for 15 min, the reactions were quenched and the amount of Cit produced quantified. The initial rates derived from these experiments were fit by non-linear least fit squares to equations representing linear competitive inhibition (Equation 4) and linear noncompetitive inhibition (Equation 5), using the using the GraFit™ version 5.0.11 software package. v=Vm[S]/(Km(1+[I]/Kis)+[S]) (Eq. 4) v=Vm[S]I(Km(1+[I]/Kis)+[S](1+[I]/Kii)) (Eq. 5)
Kii represents Ki intercept and Kis represents Ki slope. Comparisons of the standard errors derived from fits of the data to Equations 4 and 5 are most consistent with H3-amidine being a competitive inhibitor.

PAD4 [8] = biological target: T1, PAD4; settings: cited from earlier work
[9] = preincubation with PAD4 in 10 mM calcium for 15 min, read-out: IC50

T1 sequence (Q9UM07 whole entry): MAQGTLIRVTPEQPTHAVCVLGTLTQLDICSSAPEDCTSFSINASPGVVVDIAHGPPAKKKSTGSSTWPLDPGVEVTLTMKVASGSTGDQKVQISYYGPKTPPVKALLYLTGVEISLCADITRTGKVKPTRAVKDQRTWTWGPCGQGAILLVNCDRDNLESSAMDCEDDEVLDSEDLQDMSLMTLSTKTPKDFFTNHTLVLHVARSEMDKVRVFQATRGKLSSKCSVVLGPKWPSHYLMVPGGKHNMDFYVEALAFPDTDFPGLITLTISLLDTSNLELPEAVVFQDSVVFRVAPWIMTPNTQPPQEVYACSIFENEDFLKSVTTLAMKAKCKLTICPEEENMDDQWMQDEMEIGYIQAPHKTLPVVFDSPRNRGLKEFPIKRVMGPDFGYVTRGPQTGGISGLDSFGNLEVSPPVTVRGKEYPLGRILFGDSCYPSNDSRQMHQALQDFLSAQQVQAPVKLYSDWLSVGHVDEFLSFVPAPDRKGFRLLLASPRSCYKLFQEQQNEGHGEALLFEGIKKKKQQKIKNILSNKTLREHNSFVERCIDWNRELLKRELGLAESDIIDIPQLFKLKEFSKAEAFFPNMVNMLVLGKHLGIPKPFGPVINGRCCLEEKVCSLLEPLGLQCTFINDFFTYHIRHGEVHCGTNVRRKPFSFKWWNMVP

IC50 (PAD4 [1]; [9]) [µM] | time course of product formation (PAD4 [6]) | Compound | further results
585 ± 65 |  | N=C(CCl)NCC[C@H](NC(=O)c1ccccc1)C(N)=O [Cl2-amidine, N-α-benzoyl-N^4-(2-chloro-1-iminoethyl)-L-Dab amide] | 
> 1000 | linear with respect to time | CC(=N)NCCC[C@H](NC(=O)c1ccccc1)C(N)=O [H3-amidine, N-α-benzoyl-N^5-(1-iminoethyl)-L-Orn amide] | Ki (PAD4 [7]): 3200 ± 900 µM
> 500 |  | NC(=O)[C@H](CCCNC(=O)CCl)NC(=O)c1ccccc1 [Cl3-acetamide, N-α-benzoyl-N^5-(2-chloroacetyl)-L-Orn amide] | inhibition at the highest concentration tested (PAD4 [1]): no inhibition
640 ± 10 |  | N=C(CCl)NCCCC[C@H](NC(=O)c1ccccc1)C(N)=O [Cl4-amidine, N-α-benzoyl-N^6-(2-chloro-1-iminoethyl)-L-Lys amide] | 

Second part, the compound before the results:

Compound | IC50 (PAD4 [1]; [9]) [µM] | time course of product formation (PAD4 [6]) | further results
N=C(CF)NCCCC[C@H](NC(=O)c1ccccc1)C(N)=O [F4-amidine, N-α-benzoyl-N^6-(2-fluoro-1-iminoethyl)-L-Lys amide] | 655 ± 100 |  | 
N=C(CF)NCCC[C@H](NC(=O)c1ccccc1)C(N)=O [F3-amidine, N-α-benzoyl-N^5-(2-fluoro-1-iminoethyl)-L-ornithine amide] |  |  | time dependence of inhibition (progress curves) (PAD4 [2]): time dependent inhibition properties
CC(=O)O[C@H]1C(=O)[C@@]2(C)[C@H]([C@H](OC(=O)c3ccccc3)[C@]3(O)C[C@H](OC(=O)[C@H](O)[C@@H](NC(=O)c4ccccc4)c4ccccc4)C(C)=C1C3(C)C)[C@]1(OC(C)=O)CO[C@@H]1C[C@@H]2O [taxol] |  |  | IC50 (PAD4 [3]): ~5000 µM
CC(=N)NCCC[C@H](NC(=O)c1ccccc1)C(=O)O [H-Amidine, N-α-benzoyl-N^5-(1-iminoethyl)-L-ornithine] |  |  | IC50 (PAD4 [4]): 4300 ± 700 µM; time dependence of inhibition (progress curves) (PAD4 [2]): does not display time dependent inhibitory properties; Ki (PAD4 [5]): 1700 ± 200 µM
N=C(CF)NCC[C@H](NC(=O)c1ccccc1)C(N)=O [F2-amidine, N-α-benzoyl-N^4-(2-fluoro-1-iminoethyl)-L-Dab amide] | > 1000 | linear with respect to time | observed activity (PAD4 [1]; at 1000 μM): 93 % of control
NC(=O)[C@H](CCCNC(=O)CF)NC(=O)c1ccccc1 [F3-acetamide, N-α-benzoyl-N^5-(2-fluoroacetyl)-L-Orn amide] |  |  | inhibition at the highest concentration tested (PAD4 [1]): no inhibition; IC50 (PAD4 [1]; IC50, preincubation with PAD4 in 10 mM calcium for 15 min): > 500 µM
CC(=N)NCCCC[C@H](NC(=O)c1ccccc1)C(N)=O [H4-amidine, N-α-benzoyl-N^6-(1-iminoethyl)-L-Lys amide] | > 1000 | linear with respect to time | 
CC(=N)NCC[C@H](NC(=O)c1ccccc1)C(N)=O [H2-amidine, N-α-benzoyl-N^4-(1-iminoethyl)-L-Dab amide] | > 1000 | linear with respect to time | 
N=C(N)CCl [2-chloroacetamidine] |  |  | Ki (PAD4 [8]): 20000 µM; kinact/KI (PAD4 [8]; reported by the Fast group): 0.583 M⁻¹ s⁻¹

— patent US7964636B2, “Synthesis and use of novel inhibitors and inactivators of protein arginine deiminases” (University of South Carolina, priority 2005, dated 2011)
